According to patent US9790169B2, “IDO inhibitors” (BRISTOL-MYERS SQUIBB COMPANY, priority 2015, dated 2017):

Biological target: human IDO1 (Homo sapiens, UniProt P14902)
Experiment: Assessment of human IDO-1 inhibitory activity in HEK cells (human IDO1/HEK293 cells, kynurenine read-out with Ehrlich reagent, absorbance 490 nm)
Format: cell-based
Design: expressed in transfected cells
Details: HEK Human IDO-1 cellular assay
Outline: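 HEK293 cells stably expressing human IDO1 were seeded at 10,000 per well in phenol red-free RPMI with 10% FBS, treated with compound for 20 h at 37 °C. Kynurenine was measured after TCA (0.2% final) and 30 min at 50 °C, using Ehrlich reagent, A490. IC50 normalised to DMSO (0%) and 500 nM reference standard (100%).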

Sequence of human IDO1 (P14902 whole entry): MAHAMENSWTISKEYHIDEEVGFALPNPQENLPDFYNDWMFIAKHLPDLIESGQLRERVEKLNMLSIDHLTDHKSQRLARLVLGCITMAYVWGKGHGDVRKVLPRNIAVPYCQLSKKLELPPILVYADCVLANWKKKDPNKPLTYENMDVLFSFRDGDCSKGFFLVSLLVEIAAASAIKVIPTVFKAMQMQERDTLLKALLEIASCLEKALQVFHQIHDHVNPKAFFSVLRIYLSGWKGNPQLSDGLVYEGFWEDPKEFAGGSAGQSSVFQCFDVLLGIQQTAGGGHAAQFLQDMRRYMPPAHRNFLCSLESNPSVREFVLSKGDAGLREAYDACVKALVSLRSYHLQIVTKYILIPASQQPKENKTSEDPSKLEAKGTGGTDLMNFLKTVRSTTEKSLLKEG

Row | SMILES | IC50
1 | CCC(CC(=O)O)c1ccc(N(CC(C)C)C2CCCCC2)c(Nc2ccc(Cl)c(F)c2)c1 (single isomer, unassigned) [Example 310, 3-(3-((4-chloro-3-fluorophenyl)amino)-4-(cyclohexyl(isobutyl)amino)phenyl)pentanoic acid] | < 0.005 µM
2 | COCC(CC(=O)O)c1ccc(N(CC(C)C)CC(C)C)c(NC(=O)Nc2cncnc2)c1 (single isomer, unassigned) [997-1] | > 0.05 µM
3 | CCC(CC(=O)O)c1ccc(N(CC)C2CCOCC2)c(NC(=O)Nc2ccc(C)cc2)c1 (single isomer, unassigned) [Example 487 Enantiomer 1, 3-(4-(Ethyl(tetrahydro-2H-pyran-4-yl)amino)-3-(3-(p-tolyl)ureido)phenyl)pentanoic acid] | < 0.005 µM
4 | COCC(CC(=O)O)c1ccc(N(CC(C)C)CC(C)C)c(NC(=O)Nc2cncnc2)c1 (single isomer, unassigned) [997-2] | < 0.05 µM
5 | COCC(CC(=O)O)c1ccc(N(CC(C)C)CC(C)C)c(NC(=O)Nc2cncnc2)c1 (racemic) [Example 996, (+/−)-3-(4-(Diisobutylamino)-3-(3-(pyrimidin-5-yl)ureido)phenyl)-4-methoxybutanoic acid] | > 0.05 µM
6 | CCN(c1ccc(C(CC(=O)O)c2ccccc2)cc1Nc1ccc(C#N)cc1)C1CCOCC1 (single isomer, unassigned) [Example 581, 3-(3-((4-cyanophenyl)amino)-4-(ethyl(tetrahydro-2H-pyran-4-yl)amino)phenyl)-3-phenylpropanoic acid] | < 0.005 µM
7 | CCC(CC(=O)O)c1ccc(N(CCC(C)C)C2CCCCC2)c(NC(=O)Cc2ccc(Cl)cc2F)c1 (racemic) [Example 1088] | < 0.05 µM
8 | CCC(CC(=O)O)c1ccc(N2CCC[C@H]2C(C)(C)F)c(NC(=O)Nc2ccc(Cl)cc2F)c1 (single isomer, unassigned) [Example 786] | > 0.05 µM
9 | CCC(CC(=O)O)c1ccc(N(CC2CC2)C2CCOCC2)c(NC(=O)Nc2ccc(C)cc2)c1 (stereo not drawn) [Example 698] | < 0.05 µM
10 | CCN(c1ccc(C(CC(=O)O)c2ccccc2)cc1Nc1ccc(Cl)cc1)C1CCOCC1 (single isomer, unassigned) [Example 580, 3-(3-((4-chlorophenyl)amino)-4-(ethyl(tetrahydro-2H-pyran-4-yl)amino)phenyl)-3-phenylpropanoic acid] | < 0.005 µM
11 | CC[C@H](CC(=O)O)c1ccc(N(CC)C2CCOCC2)c(Nc2ccc(OCC3CC3)cc2)c1 (single isomer, unassigned) [Example 516] | < 0.005 µM
12 | COCC(CC(=O)O)c1ccc(N(CC(C)C)CC(C)C)c(NC(=O)Nc2ccc(C)cc2)c1 (racemic) [Example 992, (+/−)-3-(4-(Diisobutylamino)-3-(3-(p-tolyl)ureido)phenyl)-4-methoxybutanoic acid] | < 0.05 µM
13 | CCN(c1ccc([C@@H](COC)CC(=O)O)cc1NC(=O)Nc1cc(C)on1)C1CCOCC1 (single isomer, unassigned) [Example 428] | > 0.05 µM
14 | Cc1nc2ccc(Nc3cc(C(C)(C)CC(=O)O)ccc3N(CC(C)C)CC(C)C)cc2s1 [Example 146, 3-(4-(diisobutylamino)-3-((2-methylbenzo[d]thiazol-6-yl)amino)phenyl)-3-methylbutanoic acid] | > 0.05 µM
15 | CCOc1ncc(Nc2cc(C(CC)CC(=O)O)cc(F)c2N(CC(C)C)CC(C)C)cn1 (single isomer, unassigned) [Example 103, 3-(4-(diisobutylamino)-3-((2-ethoxypyrimidin-5-yl)amino)-5-fluorophenyl)pentanoic acid] | < 0.005 µM
16 | CCC(CC(=O)O)c1ccc(N(CC(C)C)C2CCCCC2)c(Nc2ccc3nc(C)sc3c2)c1 (single isomer, unassigned) [Example 305, 3-(4-(cyclohexyl(isobutyl)amino)-3-((2-methylbenzo [d]thiazol-6-yl)amino)phenyl)pentanoic acid] | < 0.005 µM
17 | COCC(CC(=O)OC)c1ccc(N(CC(C)C)C2CCCCC2)c(NC(=O)Nc2ccc(C)cc2)c1 (racemic) [Example 1223, (+/−)-Methyl 3-(4-(cyclohexyl(isobutyl)amino)-3-(3-(p-tolyl)ureido)phenyl)-4-methoxybutanoate] | > 0.05 µM
18 | CCC(CC(=O)O)c1cc(NC(=O)Nc2cnc(C)nc2)c(N(CC(C)C)C2CCCCC2)cc1F (single isomer, unassigned) [Example 1126, 3-(4-(Cyclohexyl(isobutyl)amino)-2-fluoro-5-(3-(2-methylpyrimidin-5-yl)ureido)phenyl)pentanoic acid] | < 0.005 µM
19 | CCC(CC(=O)O)c1ccc(N2CCC[C@H]2C(C)(C)O)c(Nc2ccc3c(c2)OC(F)(F)O3)c1 (single isomer, unassigned) [Example 821] | < 0.05 µM
20 | COCC(CC(=O)O)c1ccc(N(CC2CC2)C2CCOCC2)c(Nc2ccc(C#N)cc2)c1 (single isomer, unassigned) [Example 691, 3-(3-((4-cyanophenyl)amino)-4-((cyclopropylmethyl) (tetrahydro-2H-pyran-4-yl)amino)phenyl)-4-methoxybutanoic acid] | < 0.005 µM
21 | CCOc1ccc(Nc2cc([C@@H](CC)CC(=O)O)ccc2N(CC(C)(C)O)C2CCOCC2)c(F)c1 (single isomer, unassigned) [Example 201] | < 0.05 µM
22 | CC[C@H](CC(=O)O)c1ccc(N2CCOC[C@@H]2C(C)C)c(Nc2ccc3c(c2)OC(F)(F)O3)c1 (single isomer, unassigned) [Example 93] | < 0.05 µM
23 | CCc1ccc(Nc2cc(C(CC)CC(=O)O)ccc2N2CCOC[C@H]2C(C)C)cc1 (single isomer, unassigned) [Example 902] | < 0.005 µM
24 | COCC(CC(=O)O)c1ccc(N(CC(C)C)CC(C)C)c(NC(=O)Nc2ccc(C)cc2)c1 (single isomer, unassigned) [993-1] | < 0.05 µM
25 | CCN(c1ccc(C(CC(=O)O)C2CC2)cc1Nc1ccc(C#N)cc1)C1CCOCC1 (single isomer, unassigned) [Example 37, 3-(3-((4-cyanophenyl)amino)-4-(ethyl(tetrahydro-2H-pyran-4-yl)amino)phenyl)-3-cyclopropylpropanoic acid] | < 0.005 µM
26 | CCN(c1ccc(C(CC(=O)O)c2ccccc2)cc1NC(=O)Nc1ccc(OC)cc1F)C1CCOCC1 (single isomer, unassigned) [Example 586, 3-(4-(ethyl(tetrahydro-2H-pyran-4-yl)amino)-3-(3-(2-fluoro-4-methoxyphenyl)ureido)phenyl)-3-phenylpropanoic acid] | > 0.05 µM
27 | CCOc1ccc(NC(=O)Nc2cc(C(CC)CC(=O)O)c(F)cc2N(CC(C)C)C2CCCCC2)c(F)c1 (racemic) [Example 1116, (±)-3-(4-(Cyclohexyl(isobutyl)amino)-5-(3-(4-ethoxy-2-fluorophenyl)ureido)-2-fluorophenyl)pentanoic acid] | < 0.005 µM
28 | CC[C@@H](CC(=O)O)c1ccc(N(CC(C)(C)O)C2CCCCC2)c(Nc2ccc(F)cc2)c1 (single isomer, unassigned) [Example 225] | < 0.005 µM
29 | CCN(c1ccc([C@@H](COC)CC(=O)O)cc1NC(=O)Nc1ccc(C)cc1)C1CCOCC1 (single isomer, unassigned) [Example 433] | > 0.05 µM
30 | CC[C@@H](CC(=O)O)c1ccc(N(CC)C2CCOCC2)c(NC(=O)Nc2ccc3c(c2)CS(=O)(=O)C3)c1 (single isomer, unassigned) [Example 496] | > 0.05 µM
